Experimental data as given in ChEMBL document CHEMBL6120940, “Discovery of N-Aryl-N'-[4-(aryloxy)cyclohexyl]squaramide-Based Inhibitors of LXR/SREBP-1c Signaling Pathway Ameliorating Steatotic Liver Disease: Navigating the Role of SIRT6 Activation” (J Med Chem, 2024).
The source made the active and inactive calls. The calls are words filed in the database; no cut-off is given here.

How the values were obtained:
CYP2D6 = CYP2D6 (Homo sapiens, UniProt P10635); assay: Inhibition of CYP2D6 in human liver microsomes at 10 uM using dextromethorphan as substrate preincubated for 5 mins followed by NADPH generating system addition and measured after 15 mins relative to control; assay type: ADME, Microsome; details: probe dextromethorphan, time 20 min
CYP2D6, sequence (P10635 whole entry): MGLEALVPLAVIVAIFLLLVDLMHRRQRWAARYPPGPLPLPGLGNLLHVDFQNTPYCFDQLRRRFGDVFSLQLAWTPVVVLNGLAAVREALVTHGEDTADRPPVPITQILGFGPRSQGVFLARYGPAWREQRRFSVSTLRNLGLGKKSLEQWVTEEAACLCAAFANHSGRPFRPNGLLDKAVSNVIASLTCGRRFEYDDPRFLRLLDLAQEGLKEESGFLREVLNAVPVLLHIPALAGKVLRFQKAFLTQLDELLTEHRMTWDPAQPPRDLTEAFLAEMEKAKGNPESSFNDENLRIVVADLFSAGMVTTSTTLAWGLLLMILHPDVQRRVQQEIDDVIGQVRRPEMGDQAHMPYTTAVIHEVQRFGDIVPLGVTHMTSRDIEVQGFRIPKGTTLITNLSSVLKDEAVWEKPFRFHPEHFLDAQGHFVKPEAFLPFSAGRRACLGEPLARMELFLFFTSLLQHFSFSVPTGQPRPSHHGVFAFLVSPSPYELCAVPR

Hepatocyte [1] = assay: Effect on Acad-1 gene expression in mouse hepatocyte; assay type: functional, cell-based
Hepatocyte [2] = assay: Effect on Cpt1 gene expression in mouse hepatocyte; assay type: functional, cell-based
HepG2 [3] = assay: Downregulation of SREBP-1c expression level in human HepG2 cells at 5 to 10 uM pretreated with compound for 30 mins followed by GW3965 addition and measured after 12 hrs by RT-qPCR analysis; assay type: functional, cell-based; details: dose 5-10 µM, time 12.5 hrs
Mus musculus [4] = assay: Anti-lipogenic activity against high fat died induced male C57BL/6J mouse obesity model assessed as downregulation of Srebp-1c level at 15 mg/kg, po administered three times per week and measured after 5 weeks by RT-qPCT analysis; assay type: functional, organism-based
[5] = Terminal half life in 16 hrs fasted ICR mouse at 20 mg/kg, po measured upto 8 hrs by LC-MS/MS analysis; assay type: ADME, organism-based; details: in vivo, read-out: beta t1/2 (converted)
HepG2 [6] = assay: Downregulation of LXR level in human HepG2 cells at 10 uM preincubated for 30 mins followed by OSS128167 addition and measured after 12 hrs; assay type: functional, cell-based; details: time 12.5 hrs
[7] = AUC last in 16 hrs fasted ICR mouse at 20 mg/kg, po measured upto 8 hrs by LC-MS/MS analysis; assay type: ADME, organism-based; details: in vivo
Mus musculus [8] = assay: Anti-lipogenic activity against high fat died induced male C57BL/6J mouse obesity model assessed as reduction ALT level in serum at 15 mg/kg, po administered three times per week and measured for 5 weeks; assay type: functional, organism-based
HepG2 [9] = assay: Downregulation of SREBP-1 level in human HepG2 cells transfected with SIRT6 SiRNA at 10 uM preincubated for 30 mins followed by T0901317 addition and measured after 12 hrs; assay type: functional, cell-based; details: time 12.5 hrs
Hepatocyte [10] = assay: Effect on Ppara gene expression in mouse hepatocyte; assay type: functional, cell-based
[11] = Oral bioavailability in 16 hrs fasted ICR mouse at 20 mg/kg measured upto 8 hrs by LC-MS/MS analysis; assay type: ADME, organism-based; details: in vivo
[12] = AUC last in 16 hrs fasted ICR mouse at 2 mg/kg, iv measured upto 8 hrs by LC-MS/MS analysis; assay type: ADME, organism-based; details: in vivo
HepG2 [13] = assay: Downregulation of SCD gene expression in human HepG2 cells in presence of T0901317 by RNA sequencing analysis; assay type: functional, cell-based
Mus musculus [14] = assay: Anti-lipogenic activity against high fat died induced male C57BL/6J mouse obesity model assessed as downregulation of Ccl5 mRNA level at 15 mg/kg, po administered three times per week and measured after 5 weeks by RT-qPCT analysis; assay type: functional, organism-based
HepG2 [15] = assay: Downregulation of SREBP-1c expression level in human HepG2 cells at 10 uM pretreated with compound for 30 mins followed by T0901317 addition and measured after 12 hrs by immunocytochemical analysis; assay type: functional, cell-based; details: time 12.5 hrs
Mus musculus [16] = assay: Anti-lipogenic activity against high fat died induced male C57BL/6J mouse obesity model assessed as downregulation of Acaca-gene level at 15 mg/kg, po administered three times per week and measured after 5 weeks by RT-qPCT analysis; assay type: functional, organism-based
[17] = target: NAD-dependent protein deacylase sirtuin-6 (Homo sapiens) (UniProt Q8N6T7); assay: Activation of recombinant SIRT6 (unknown origin) using fluoro-substrate peptide as substrate at 2.5 to 400 uM by fluorescence based analysis; details: filed as activator, dose 2.5-400 µM
NAD-dependent protein deacylase sirtuin-6 (Homo sapiens), sequence (Q8N6T7 whole entry): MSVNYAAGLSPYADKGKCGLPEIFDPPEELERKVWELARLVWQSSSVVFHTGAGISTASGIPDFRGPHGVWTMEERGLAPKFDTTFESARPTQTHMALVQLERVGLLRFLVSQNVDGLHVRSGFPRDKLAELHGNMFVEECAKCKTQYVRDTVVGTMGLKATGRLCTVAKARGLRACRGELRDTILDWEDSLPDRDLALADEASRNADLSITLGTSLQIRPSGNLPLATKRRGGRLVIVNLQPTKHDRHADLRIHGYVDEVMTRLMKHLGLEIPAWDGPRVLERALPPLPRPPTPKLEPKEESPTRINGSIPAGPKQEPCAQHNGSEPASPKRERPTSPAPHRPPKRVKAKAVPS

[18] = Metabolic stability in mouse liver microsomes at 1 uM measured after 30 mins in presence of NADPH regeneration system by LC-MS/MS analysis; assay type: ADME, Microsome; details: read-out: Stability
HepG2 [19] = assay: Downregulation of SREBP-1c expression in human HepG2 cells at 5 uM pretreated with compound for 30 mins followed by T0901317 addition and measured after 12 hrs in presence of compound C by immunoblot analysis; assay type: functional, cell-based; details: time 12.5 hrs
[20] = AUC infinity in 16 hrs fasted ICR mouse at 20 mg/kg, po measured upto 8 hrs by LC-MS/MS analysis; assay type: ADME, organism-based; details: in vivo
CYP2C19 = CYP2C19 (Homo sapiens, UniProt P33261); assay: Inhibition of CYP2C19 in human liver microsomes at 10 uM using S-mephenytoin as substrate preincubated for 5 mins followed by NADPH generating system addition and measured after 15 mins relative to control; assay type: ADME, Microsome; details: probe S-mephenytoin, time 20 min
CYP2C19, sequence (P33261 whole entry): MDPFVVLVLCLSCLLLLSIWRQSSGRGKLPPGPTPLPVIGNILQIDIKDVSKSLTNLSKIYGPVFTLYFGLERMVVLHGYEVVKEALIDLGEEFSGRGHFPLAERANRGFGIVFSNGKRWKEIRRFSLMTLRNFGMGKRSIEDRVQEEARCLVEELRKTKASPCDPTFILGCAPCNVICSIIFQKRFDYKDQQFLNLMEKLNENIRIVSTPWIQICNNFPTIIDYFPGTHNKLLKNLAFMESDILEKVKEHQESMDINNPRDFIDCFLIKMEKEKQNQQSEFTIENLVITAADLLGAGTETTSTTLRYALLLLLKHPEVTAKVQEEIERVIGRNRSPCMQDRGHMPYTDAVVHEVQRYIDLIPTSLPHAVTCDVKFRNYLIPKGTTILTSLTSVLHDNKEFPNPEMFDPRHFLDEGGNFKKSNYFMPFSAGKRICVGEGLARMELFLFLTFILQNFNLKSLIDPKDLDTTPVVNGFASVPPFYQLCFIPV

HepG2 [21] = assay: Downregulation of FASN mRNA level in human HepG2 cells at 10 uM pretreated with compound for 30 mins followed by […] addition and measured after 12 hrs by RT-qPCR analysis; assay type: functional, cell-based; details: time 12.5 hrs
Hepatocyte [22] = assay: Lipid lowering effect on palmitic acid induced lipid accumulation in mouse Hepatocyte at 5 uM incubated for 30 mins by Oil red O staining based analysis; assay type: functional, cell-based
Mus musculus [23] = assay: Anti-lipogenic activity against high fat died induced male C57BL/6J mouse obesity model assessed as reduction liver tissue size at 15 mg/kg, po administered three times per week and measured for 5 weeks; assay type: functional, organism-based
[24] = Stability in rat plasma measured after 120 mins by LC-MS/MS analysis; assay type: ADME, cell-free; details: read-out: Stability
Hepatocyte [25] = assay: Effect on Acox-1 gene expression in mouse hepatocyte; assay type: functional, cell-based
Mus musculus [26] = assay: Anti-lipogenic activity against high fat died induced male C57BL/6J mouse obesity model assessed as reduction in lipid droplet formation at 15 mg/kg, po administered three times per week and measured for 5 weeks by H and E staining based analysis; assay type: functional, organism-based
HepG2 [27] = assay: Downregulation of SREBP-1c expression level in human HepG2 cells pretreated with compound for 30 mins followed by T0901317 addition and measured after 12 hrs by RT-qPCR analysis; assay type: functional, cell-based; details: dose 5-10 µM, time 12.5 hrs
[28] = Metabolic stability in human liver microsomes at 1 uM measured after 30 mins in presence of NADPH regeneration system by LC-MS/MS analysis; assay type: ADME, Microsome; details: read-out: Stability
[29] = Stability in human plasma measured after 120 mins by LC-MS/MS analysis; assay type: ADME, cell-free; details: read-out: Stability
HepG2 [30] = assay: Downregulation of acetylated histone H3K9 level in human HepG2 cells at 5 to 10 uM preincubated for 30 mins followed by OSS128167 addition and measured after 12 hrs; assay type: functional, cell-based; details: dose 5-10 µM, time 12.5 hrs
HepG2 [31] = assay: Downregulation of acetylated histone H3K9 level in human HepG2 cells preincubated for 30 mins followed by T0901317 addition and measured after 12 hrs; assay type: functional, cell-based; details: dose 5-10 µM, time 12.5 hrs
[32] = target: Voltage-gated inwardly rectifying potassium channel KCNH2 (Homo sapiens, UniProt Q12809); assay: Inhibition of human ERG expressing HEK cells by whole-cell patch clamp assay; assay type: toxicity, cell-based
Voltage-gated inwardly rectifying potassium channel KCNH2, sequence (Q12809 whole entry): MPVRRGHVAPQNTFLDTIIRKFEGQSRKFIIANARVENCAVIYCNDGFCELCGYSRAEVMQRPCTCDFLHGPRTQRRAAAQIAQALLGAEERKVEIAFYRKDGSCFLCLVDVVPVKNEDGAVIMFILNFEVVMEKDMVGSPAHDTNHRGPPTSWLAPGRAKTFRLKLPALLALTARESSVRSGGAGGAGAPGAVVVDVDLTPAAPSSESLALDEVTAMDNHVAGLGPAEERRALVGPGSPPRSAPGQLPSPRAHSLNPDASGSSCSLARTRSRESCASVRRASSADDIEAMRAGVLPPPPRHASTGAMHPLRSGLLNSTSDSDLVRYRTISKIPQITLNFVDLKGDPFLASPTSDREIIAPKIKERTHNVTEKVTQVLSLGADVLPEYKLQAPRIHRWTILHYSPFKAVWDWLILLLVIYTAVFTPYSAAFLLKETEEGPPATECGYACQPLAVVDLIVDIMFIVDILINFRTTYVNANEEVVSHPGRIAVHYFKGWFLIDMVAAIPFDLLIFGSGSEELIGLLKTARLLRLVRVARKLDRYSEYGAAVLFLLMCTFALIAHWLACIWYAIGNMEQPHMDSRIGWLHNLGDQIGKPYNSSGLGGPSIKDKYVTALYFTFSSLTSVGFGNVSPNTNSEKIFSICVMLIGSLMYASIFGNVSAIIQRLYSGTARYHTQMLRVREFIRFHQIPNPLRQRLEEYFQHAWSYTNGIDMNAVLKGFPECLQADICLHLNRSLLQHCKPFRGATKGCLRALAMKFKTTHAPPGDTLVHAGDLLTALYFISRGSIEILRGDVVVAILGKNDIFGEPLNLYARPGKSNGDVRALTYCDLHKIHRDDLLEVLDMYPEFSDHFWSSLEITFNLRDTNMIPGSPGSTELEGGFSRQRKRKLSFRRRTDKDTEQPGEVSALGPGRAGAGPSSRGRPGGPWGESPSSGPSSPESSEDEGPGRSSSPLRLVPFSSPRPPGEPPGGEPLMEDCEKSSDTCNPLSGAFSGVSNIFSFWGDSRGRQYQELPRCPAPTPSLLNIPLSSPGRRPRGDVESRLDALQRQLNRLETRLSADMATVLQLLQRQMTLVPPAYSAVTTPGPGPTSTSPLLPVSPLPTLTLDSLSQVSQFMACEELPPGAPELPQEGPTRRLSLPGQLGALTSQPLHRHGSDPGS

HepG2 [33] = assay: Downregulation of ACLY gene expression in human HepG2 cells in presence of T0901317 by RNA sequencing analysis; assay type: functional, cell-based
Hepatocyte [34] = assay: Inhibition of Scd level in mouse hepatocyte at 10 uM preincubated with compound for 30 mins followed by T0901317 addition and measured after 12 hrs; assay type: functional, cell-based; details: time 12.5 hrs
HepG2 [35] = assay: Downregulation of SREBP-1c level in human HepG2 cells at 10 uM preincubated for 30 mins followed by OSS128167 addition and measured after 12 hrs; assay type: functional, cell-based; details: time 12.5 hrs
Mus musculus [36] = assay: Anti-lipogenic activity against high fat died induced male C57BL/6J mouse obesity model assessed as reduction in liver weight at 15 mg/kg, po administered three times per week and measured for 5 weeks; assay type: functional, organism-based

COc1ccccc1Nc1c(N[C@H]2CC[C@H](Oc3ccc([N+](=O)[O-])cc3)CC2)c(=O)c1=O
inhibition at 0.25 h, 10 µM (CYP2D6): > 100% | Activity (Hepatocyte [1]): inactive | Activity (Hepatocyte [2]): inactive | Activity (HepG2 [3]): Active | Activity (Mus musculus [4]): Active | half-life [5]: 1.4 h | Activity (HepG2 [6]): inactive | AUC(0-t) at 8 h [7]: 2820 ng·h/mL | Activity (Mus musculus [8]): Active | Activity (HepG2 [9]): inactive | Activity (Hepatocyte [10]): inactive | bioavailability [11]: 11.2% | AUC(0-t) at 8 h [12]: 2370 ng·h/mL | Activity (HepG2 [13]): Active | Activity (Mus musculus [14]): Active | Activity (HepG2 [15]): Active | Activity (Mus musculus [16]): Active | Activity [17]: Active | remaining at 0.5 h, 1 µM [18]: 46.9% | Activity (HepG2 [19]): inactive | AUC(0-inf) [20]: 2890 ng·h/mL | inhibition at 0.25 h, 10 µM (CYP2C19): 41.1% | Activity (HepG2 [21]): Active | Activity (Hepatocyte [22]): Active | Activity (Mus musculus [23]): Active | remaining at 2 h [24]: 96.2% | Activity (Hepatocyte [25]): inactive | Activity (Mus musculus [26]): Active | Activity (HepG2 [27]): Dose-dependent-effect | remaining at 0.5 h, 1 µM [28]: 34.2% | remaining at 2 h [29]: 94.6% | Activity (HepG2 [30]): inactive | Activity (HepG2 [31]): Dose-dependent-effect | IC50 [32]: 33.2 µM | Activity (HepG2 [33]): Active | inhibition (Hepatocyte [34]): Active | Activity (HepG2 [35]): inactive | Activity (Mus musculus [36]): Active
